Data: DBAASP
In brackets after ≈: the same amount, converted by molar mass. Each block holds one compound with its values, some of them ahead of it.

Legend:
Experiment in all cases: ≥ marks a high value that may be exact or a test limit, other limits are often not marked, values filed in µg/mL are converted to µM
[1] = tested on: Escherichia coli UB1005
[2] = tested on: Salmonella enterica subsp. enterica serovar Typhimurium ATCC 14028s
[3] = tested on: Pseudomonas aeruginosa H547
[4] = tested on: Pseudomonas aeruginosa K799
[5] = tested on: Pseudomonas aeruginosa Z61
[6] = tested on: Pseudomonas aeruginosa H744
[7] = tested on: Pseudomonas aeruginosa
[8] = tested on: Escherichia coli 55B5
[9] = tested on: Salmonella typhimurium
[10] = tested on: Staphylococcus aureus
[11] = tested on: Enterococcus faecalis ATCC 29212
[12] = tested on: Escherichia coli ESBL 63103
[13] = tested on: Enterococcus faecalis f43559
[14] = tested on: Pseudomonas aeruginosa LES400
[15] = tested on: Pseudomonas aeruginosa 213
[16] = tested on: Enterobacter cloacae 218R
[17] = tested on: Staphylococcus aureus C623
[18] = tested on: Enterococcus faecium mic80
[19] = tested on: Klebsiella pneumoniae ESBL 63575
[20] = tested on: Pseudomonas aeruginosa 198
[21] = tested on: Enterococcus faecium t62764
[22] = tested on: Stenotrophomonas maltophilia ATCC 13637
[23] = tested on: Escherichia coli ESBL 64771
[24] = tested on: Pseudomonas aeruginosa 9
[25] = tested on: Staphylococcus aureus ATCC 25923
[26] = tested on: Klebsiella pneumoniae ESBL 61962
[27] = tested on: Pseudomonas aeruginosa H1030
[28] = tested on: Pseudomonas aeruginosa PAO1 H103
[29] = tested on: Pseudomonas aeruginosa H1027
[30] = tested on: Enterococcus faecalis W61950
[31] = tested on: Escherichia coli ATCC 25922
[32] = tested on: Candida albicans ATCC 10231
[33] = tested on: Staphylococcus aureus ATCC 29213
[34] = tested on: Escherichia coli
[35] = tested on: Salmonella sp.
[36] = tested on: Staphylococcus aureus ATCC 43300
[37] = tested on: Salmonella enterica subsp. enterica serovar Enteritidis
[38] = tested on: Pseudomonas aeruginosa ATCC 27853
[39] = tested on: Yersinia enterocolitica
[40] = tested on: Cryptococcus neoformans ATCC 32264

MIC [1]: 25.9 µM (≈ 64 µg/mL) | MIC [2]: 25.9 µM (≈ 64 µg/mL) | MIC [3]: 25.9 µM (≈ 64 µg/mL) | MIC [4]: 25.9 µM (≈ 64 µg/mL) | MIC [5]: 25.9 µM (≈ 64 µg/mL) | MIC [6]: 25.9 µM (≈ 64 µg/mL)
Compound: CC(C)C[C@H](NC(=O)[C@H](C)NC(=O)[C@H](CC(N)=O)NC(=O)[C@@H]1CCCN1C(=O)CNC(=O)[C@H](CO)NC(=O)[C@H](CC(N)=O)NC(=O)[C@@H](NC(=O)[C@H](C)NC(=O)[C@H](CCCCN)NC(=O)[C@H](CCC(N)=O)NC(=O)[C@H](C)NC(=O)[C@H](CCCCN)NC(=O)[C@H](Cc1c[nH]c2ccccc12)NC(=O)[C@H](Cc1c[nH]c2ccccc12)NC(=O)[C@H](CCCCN)NC(=O)[C@@H](N)CCCCN)C(C)C)C(=O)N[C@@H](CCC(N)=O)C(=O)N[C@H](C(=O)N[C@@H](CC(C)C)C(=O)N[C@@H](C)C(=O)N[C@@H](CCC(N)=O)C(=O)O)[C@@H](C)O [KKWWKAQKAVNSGPNALQTLAQ]

MIC [1]: 12.5 µM (≈ 31 µg/mL) | MIC [7]: 12.5 µM (≈ 31 µg/mL) | MIC [8]: 10.5 µM (≈ 26.1 µg/mL) | MIC [9]: 10.5 µM (≈ 26.1 µg/mL)
Compound: CC[C@H](C)[C@H](NC(=O)[C@H](C)N)C(=O)N[C@@H](Cc1cnc[nH]1)C(=O)N[C@@H](CCCCN)C(=O)N[C@@H](CC(C)C)C(=O)N[C@@H](C)C(=O)N[C@@H](Cc1cnc[nH]1)C(=O)N[C@@H](CCCCN)C(=O)N[C@@H](CC(C)C)C(=O)N[C@H](C(=O)N[C@@H](CCCCN)C(=O)N[C@@H](CCCCN)C(=O)N[C@H](C(=O)N[C@@H](CC(C)C)C(=O)N[C@@H](CCCN=C(N)N)C(=O)N[C@@H](C)C(=O)N[C@H](C(=O)N[C@@H](CCCCN)C(=O)N[C@@H](CCCCN)C(=O)N[C@@H](CC(C)C)C(=O)N[C@@H](C)C(=O)N[C@@H](CC(N)=O)C(=O)O)C(C)C)[C@@H](C)O)[C@@H](C)O [AIHKLAHKLTKKTLRAVKKLAN]

MIC [10]: 25 µM (≈ 62.3 µg/mL) | MIC [1]: 2.5 µM (≈ 6.23 µg/mL) | MIC [7]: 4.5 µM (≈ 11.2 µg/mL) | MIC [8]: 2 µM (≈ 4.99 µg/mL) | MIC [9]: 6 µM (≈ 15 µg/mL)
Compound: CC[C@H](C)[C@H](NC(=O)[C@H](C)N)C(=O)N[C@@H](Cc1cnc[nH]1)C(=O)N[C@@H](CCCCN)C(=O)N[C@@H](CC(C)C)C(=O)N[C@@H](C)C(=O)N[C@@H](Cc1cnc[nH]1)C(=O)N[C@@H](CCCCN)C(=O)N[C@@H](CC(C)C)C(=O)N[C@@H](CC(C)C)C(=O)N[C@@H](CCCCN)C(=O)N[C@@H](CCCCN)C(=O)N[C@@H](CC(C)C)C(=O)N[C@@H](CC(C)C)C(=O)N[C@@H](CCCCN)C(=O)N[C@@H](C)C(=O)N[C@H](C(=O)N[C@@H](CCCCN)C(=O)N[C@@H](CCCCN)C(=O)N[C@@H](CC(C)C)C(=O)N[C@@H](C)C(=O)N[C@@H](CCCCN)C(=O)O)C(C)C [AIHKLAHKLLKKLLKAVKKLAK]

MIC [11]: 10.9 µM (≈ 16 µg/mL) | MIC [12]: 2.65 µM (≈ 3.9 µg/mL) | MIC [13]: ≥ 42.1 µM | MIC [14]: 2.65 µM (≈ 3.9 µg/mL) | MIC [15]: 10.9 µM (≈ 16 µg/mL) | MIC [16]: 2.65 µM (≈ 3.9 µg/mL) | MIC [17]: 1.36 µM (≈ 2 µg/mL) | MIC [18]: 2.65 µM (≈ 3.9 µg/mL) | MIC [19]: 5.02 µM (≈ 7.4 µg/mL) | MIC [20]: 5.5 µM (≈ 8.1 µg/mL) | MIC [21]: 0.611 µM (≈ 0.9 µg/mL) | MIC [22]: 0.34 µM (≈ 0.5 µg/mL) | MIC [23]: 1.36 µM (≈ 2 µg/mL) | MIC [24]: 5.5 µM (≈ 8.1 µg/mL) | MIC [25]: 1.36 µM (≈ 2 µg/mL) | MIC [26]: 21 µM (≈ 31 µg/mL) | MIC [27]: 5.5 µM (≈ 8.1 µg/mL) | MIC [28]: 1.36 µM (≈ 2 µg/mL) | MIC [29]: 0.136 µM (≈ 0.2 µg/mL) | MIC [30]: ≥ 42.1 µM
Compound: CC(C)C[C@H](NC(=O)[C@H](Cc1c[nH]c2ccccc12)NC(=O)[C@H](Cc1c[nH]c2ccccc12)NC(=O)[C@H](CCCCN)NC(=O)[C@H](Cc1c[nH]c2ccccc12)NC(=O)[C@H](CCCN=C(N)N)NC(=O)[C@H](CCCN=C(N)N)NC(=O)[C@H](Cc1c[nH]c2ccccc12)NC(=O)[C@@H](N)CCCN=C(N)N)C(=O)O [RWRRWKWWL]

MIC [31]: > 50 µM | MIC [32]: 100 µM (≈ 267 µg/mL) | MIC [33]: > 50 µM | MIC [34]: > 50 µM | MIC [35]: ≥ 50 µM | MIC [36]: > 50 µM | MIC [37]: 25 µM (≈ 66.9 µg/mL) | MIC [38]: > 50 µM | MIC [39]: ≥ 50 µM | MIC [40]: ≥ 200 µM
Compound: N=C(N)NCCC[C@H](NC(=O)[C@H](CCCNC(=N)N)NC(=O)[C@H](Cc1c[nH]c2ccccc12)NC(=O)[C@H](Cc1c[nH]c2ccccc12)NC(=O)[C@H](Cc1c[nH]c2ccccc12)NC(=O)[C@H](Cc1c[nH]c2ccccc12)NC(=O)[C@H](Cc1c[nH]c2ccccc12)NC(=O)[C@H](CCCCN)NC(=O)[C@H](Cc1c[nH]c2ccccc12)NC(=O)[C@H](Cc1c[nH]c2ccccc12)NC(=O)[C@@H](N)CCCNC(=N)N)C(=O)N[C@@H](Cc1c[nH]c2ccccc12)C(=O)N[C@@H](CCCCN)C(=O)N[C@@H](Cc1c[nH]c2ccccc12)C(=O)N[C@@H](CCCCN)C(=O)N[C@@H](CCCCN)C(N)=O [RWWKWWWWWRRWKWKK]
